We go through 3 molecules from patent publication US11235015B2, “Antiviral Traditional Chinese Medicine composition and preparation method and use i'hereof” (priority 2017, dated 2022).

In series [1] the test system is avian influenza virus H7N7. The experiment in a line: microbe, parasite or virus in culture. The class given is cell-based. The settings on record: H7N7, MDCK; for OD value (A): MTT; for inhibition at 39.06 µg/mL / inhibition at 78.12 µg/mL / inhibition at 156.25 µg/mL / IC50: unidentified influenza virus; for inhibition at 39.06 µg/mL / inhibition at 78.12 µg/mL / inhibition at 156.25 µg/mL: H7N7; for IC50: H7N7 virus, MDCK cells.

The subject of series [2] is dry yeast induced fever in rats. The experiment in a line: Antipyretic effect, dry yeast induced fever in rats, rectal temperature. The class given is in vivo, SD rats.
Series [3] deals with MDCK cells. The experiment in a line: Toxicity of the tested substance on MDCK cells, MTT method. Conditions: OD 570 nm, 3 days. Background: Tetrazolium assays rely on reduction of a dye to a coloured formazan, in cell work by metabolically active cells.
In series [4] the test system is avian influenza virus H9N2. The experiment in a line: microbe, parasite or virus in culture. The class given is cell-based. The settings on record: H9N2, MDCK; for OD value (A): MTT; for inhibition at 39.06 µg/mL / inhibition at 78.12 µg/mL / inhibition at 156.25 µg/mL / IC50: Influenza A virus; for inhibition at 39.06 µg/mL / inhibition at 78.12 µg/mL / inhibition at 156.25 µg/mL: H9N2; for IC50: H9N2 virus, MDCK cells.

[5] abbreviates: 39.06 μg/ml, first of 2 experiments.
[6] abbreviates: 39.06 μg/ml, second of 2 experiments.
The mark [7] stands for this setting: 78.12 μg/ml, first of 2 experiments.
The mark [8] stands for this setting: 78.12 μg/ml, second of 2 experiments.
[9] abbreviates: 156.25 μg/ml, first of 2 experiments.
The mark [10] stands for this setting: 156.25 μg/ml, second of 2 experiments.

Values after ≈ are worked out from the molar mass of the structure shown. Counter-ions that a name gives are not always drawn.

With `NC12CC3CC(CC(C3)C1)C2` [Adamantanamine, amantadine hydrochloride], the “OD value (A)” value in series [1] (setting [5]) came out at 0.55 ± 0.04 A; in series [1] (setting [6]), 0.57 ± 0.07 A; in series [1] (setting [7]), 0.86 ± 0.08 A; in series [1] (setting [8]), 0.81 ± 0.04 A; in series [1] (setting [9]) it was 1.01 ± 0.07 A; in series [1] (setting [10]), 0.98 ± 0.09 A. Moreover, the inhibition at 39.06 µg/mL in series [1] (setting [5]) amounted to 36%; in series [1] (setting [6]), 38%. Moreover, the inhibition at 78.12 µg/mL stood at 60% in series [1] (setting [7]) and 55% in series [1] (setting [8]). Also, the inhibition at 156.25 µg/mL in series [1] (setting [9]) was determined as 71%; in series [1] (setting [10]), 68%. Moreover, the 50% inhibitory concentration (IC50) in series [1] (first of 2 experiments) is 62 µg/mL; in series [1] (second of 2 experiments) it was 66 µg/mL.
Turning to `CC(=O)Oc1ccccc1C(=O)O` [Aspirin], the rectal temperature in series [2] (100 mg/kg by gavage 0.5 h and […] after pyrogen, baseline value, 1 h before the injection of pyrogen, n = 5) worked out at 37.8 °C; in series [2] (100 mg/kg by gavage, 1 h after the injection of pyrogen), 38.0 °C; in series [2] (100 mg/kg by gavage, 2 h after the injection of pyrogen), 37.5 °C; in series [2] (100 mg/kg by gavage, 3 h after the injection of pyrogen) it was 37.7 °C; in series [2] (100 mg/kg by gavage, 4 h after the injection of pyrogen) it was 37.8 °C; in series [2] (100 mg/kg by gavage, 5 h after the injection of pyrogen), 38.1 °C. Moreover, the rectal temperature worked out at 38.1 °C in series [2] (100 mg/kg by gavage, 6 h after the injection of pyrogen); 38.3 °C in series [2] (100 mg/kg by gavage, 7 h after the injection of pyrogen); 38.5 °C in series [2] (100 mg/kg by gavage, 8 h after the injection of pyrogen); 38.8 °C in series [2] (100 mg/kg by gavage, 9 h after the injection of pyrogen). Besides, the “time for which the effect of reducing the body temperature was maintained” value in series [2] (100 mg·kg^−1, starting from […] after the injection of the pyrogen) is 4 h.
`NC12CC3CC(CC(C3)C1)C2` [amantadine]: the “OD value (A)” value in series [3] (39.06 μg/ml) stood at 1.20 ± 0.04 A; in series [3] (78.12 μg/ml) it was 1.05 ± 0.02 A; in series [3] (156.25 μg/ml), 0.96 ± 0.05 A; in series [4] (setting [5]), 0.37 ± 0.02 A; in series [4] (setting [6]), 0.32 ± 0.03 A; in series [4] (setting [7]), 0.64 ± 0.05 A. In addition, the entries for the “OD value (A)” value in series [4] (setting [8]), in series [4] (setting [9]) and in series [4] (setting [10]) were 0.46 ± 0.03 A, 0.71 ± 0.07 A and 0.68 ± 0.15 A, respectively. Also, the inhibition at 39.06 µg/mL stood at 34% in series [4] (setting [5]) and 27% in series [4] (setting [6]). Also, the inhibition at 78.12 µg/mL in series [4] (setting [7]) worked out at 65%; in series [4] (setting [8]), 42%. Also, the inhibition at 156.25 µg/mL in series [4] (setting [9]) was found to be 72%; in series [4] (setting [10]), 66%. For the same molecule, the IC50 in series [4] (first of 2 experiments) came to 63 µg/mL (≈ 417 µM); in series [4] (second of 2 experiments) it was 66 µg/mL (≈ 436 µM).

Usually inhibition stands for the drop in the measured response relative to a control, in per cent. As a reminder, the IC50 is the concentration that gives 50% inhibition. Higher therefore signals weaker potency in that assay.
